This is an account of results in patent EP2548863A1, “New CRTh2 antagonists” (Almirall, S.A., priority 2011, dated 2013).

The target of this assay is T1, CRTh2 receptor (Homo sapiens, UniProt Q9Y5Y4).
T1 construct: expressed in transfected cells; host or cells: CHO.K1 cells (membranes)
T1 sequence (Q9Y5Y4 1-395): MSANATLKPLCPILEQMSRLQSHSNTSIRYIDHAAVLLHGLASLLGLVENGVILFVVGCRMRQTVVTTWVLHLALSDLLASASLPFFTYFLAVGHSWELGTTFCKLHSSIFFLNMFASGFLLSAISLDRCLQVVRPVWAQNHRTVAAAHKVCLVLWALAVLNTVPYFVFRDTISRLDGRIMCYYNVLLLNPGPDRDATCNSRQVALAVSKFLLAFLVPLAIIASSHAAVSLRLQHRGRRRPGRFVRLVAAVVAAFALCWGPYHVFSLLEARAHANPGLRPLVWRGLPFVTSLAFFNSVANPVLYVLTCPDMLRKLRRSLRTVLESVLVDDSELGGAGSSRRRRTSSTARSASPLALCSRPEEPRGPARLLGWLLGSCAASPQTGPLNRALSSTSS
Briefly: CRTh2 GTPγS antagonism binding assay. The assay is classed as biochemical. The settings on record: membranes from CHO.K1 cells stably overexpressing the CRTh2 receptor; [35S]-GTPγS 0.1 nM; PGD2 at 50 nM (EC80); IC50 per method; read-out: GTPγ Binding. Here is the method:
CRTh2 GTPγS antagonism bending assay
The assay is performed using membranes obtained from CHO.K1 cells stably overexpressing the CRTh2 receptor and [^35S]-GTPγS as radioligand. Assay is performed pre-incubating 4-8 µg of membranes per well with the compound to be tested for 1h, followed by incubation with PGD2 at 50 nM (EC80), 0.1 nM [^35S]-GTPγS in incubation buffer (20 mM Herpes, 10 mM MgCl2, 100 mM NaCl, 10 µM GDP, 10 µg/ml Saponine and 0.2% BSA) for 2 h at room temperature. The reaction is terminated by filtering in GF/C plates pre-treated with 20 mM HEPES, 10 mM MgCl2, 100 mM NaCl and washing 6 times with wash buffer (20 mM NaH2PO4, 20 mM Na2HPO4). After washing, plates are dried and scintillation buffer Optiphase added. The radioactivity retained in the filter is counted using a Microbeta liquid scintillation counter. Compound IC50 are determined using Excel XL-fit for calculations.
For the compound `CCN(Cc1cc(C(F)(F)F)ccc1-c1nn(CC(=O)O)c2ccccc12)C(=O)C1CC1` [Example 1, {3-[2-{[(Cyclopropylcarbonyl)(ethyl)amino]methyl]-4-(trifluoromethyl)phenyl]-1H-indazol-1-yl}acetic acid], the IC50 was 18 nM.

Regarding `CCN(Cc1cc(C(F)(F)F)ccc1-c1nn(CC(=O)O)c2cccc(Cl)c12)C(=O)C1CC1` [Example 2, {4-Chloro-3-[2-{[(cyccopropylcarbonyl)(ethyl)amino]methyl}-4-(trifluoromethyl)phenyl]-1H-indazol-1-yl}acetic acid], the IC50 stood at 6 nM.

Turning to `CCN(Cc1cc(C(F)(F)F)ccc1-c1nn(CC(=O)O)c2ccc(F)cc12)C(=O)C1CC1` [Example 3, {3-[2-{[(Cyclopropylcarbonyl)(ethyl)amino]methyl}-4-(trifluoromethyl)phenyl]-5-fluoro-1H-indazol-1-yl}acetic acid], the IC50 worked out at 15 nM.

Take `CCN(Cc1cc(F)ccc1-c1nn(CC(=O)O)c2cccc(Cl)c12)C(=O)C1CC1` [Example 4, [4-Chloro-3-(2-{[(cyclopropylcarbonyl)(ethyl)amino]methyl}-4-fluorophenyl)-1H-indazol-1-yl]acetic acid]: the IC50 was found to be 9 nM.

Regarding `CCN(Cc1cc(C(F)(F)F)ccc1-c1nn(CC(=O)O)c2ccc(Cl)cc12)C(=O)C1CC1` [Example 5], the IC50 was determined as 16 nM.

Take `CCN(Cc1cc(F)ccc1-c1nn(CC(=O)O)c2ccc(C(F)(F)F)cc12)C(=O)C1CC1` [Example 8, [3-(2-{[(Cyclopropylcarbonyl)(ethyl)amino]methyl}-4-fluorophenyl)-5-(trifluoromethyl)-1H-indazol-1-yl]acetic acid]: the IC50 is 7 nM.

Take `CCN(Cc1cc(C(F)(F)F)ccc1-c1nn(C(C)C(=O)O)c2cccc(Cl)c12)C(=O)C1CC1` (stereo not drawn) [Example 9, 2-{4-Chloro-3-[2-{[(cyclopropylcarbonyl)(ethyl)amino]methyl}-4-(trifluoromethyl)phenyl]-1H-indazol-1-yl}propanoic acid]: the IC50 was 13 nM.

On to `CCN(Cc1cc(F)ccc1-c1nn(CC(=O)O)c2ccc(Cl)cc12)C(=O)C1CC1` [Example 11, [5-Chloro-3-(2-{[(cyclopropylcarbonyl)(ethyl)amino]methyl}-4-fluorophenyl)-1H-indazol-1-yl]acetic acid], for which the IC50 is 6 nM.

Take `CCN(Cc1cc(C(F)(F)F)ccc1-c1nn(CC(=O)O)c2cccc(F)c12)C(=O)C1CC1` [Example 14, {3-[2-{[(Cyclopropylcarbonyl)(ethyl)amino]methyl}-4-(trifluoromethyl)phenyl]-4-fluoro-1H-indazol-1-yl}acetic acid]: the IC50 came to 4 nM.

For `CCN(Cc1cc(C(F)(F)F)ccc1-c1nn(CC(=O)O)c2ccc(C)cc12)C(=O)C1CC1` [Example 15, {3-[2-{[(Cyclopropylcarbonyl)(ethyl)amino]methyl}-4-(trifluoromethyl)phenyl]-5-methyl-1H-indazol-1-yl}acetic acid], the IC50 amounted to 8 nM.

With `CCN(Cc1cc(C(F)(F)F)ccc1-c1nn(CC(=O)O)c2cccc(C)c12)C(=O)C1CC1` [Example 16, {3-[2-{[(Cyclopropylcarbonyl)(ethyl)ammo]methyl}-4-(trifluoromethyl)phenyl]-4-methyl-1H-indazol-1-yl}acetic acid], the IC50 worked out at 17 nM.

`CCN(Cc1cc(C(F)(F)F)ccc1-c1nn(CC(=O)O)c2ccc(F)c(Cl)c12)C(=O)C1CC1` [Example 17, {4-Chloro-3-[2-{[(cydopropylcarbonyl)(ethyl)amino]methyl}-4-(trifluoromethyl)phenyl]-5-fluoro-1H-indazol-1-yl}acetic acid]: the IC50 is 10 nM.

Regarding `CCN(Cc1cc(F)ccc1-c1nn(CC(=O)O)c2ccc(Cl)cc12)C(=O)OC(C)(C)C` [Example 18, [3-(2-{[(tert-Butoxycarbonyl)(ethyl)amino]methyl}-4-fluorophenyl)-5-chloro-1H-indazol-1-yl]acetic acid], the IC50 amounted to 13 nM.

For the compound `CCN(Cc1cc(F)ccc1-c1nn(CC(=O)O)c2ccc(Cl)cc12)C(=O)C1CCC1` [Example 19, [5-Chloro-3-(2-{[(cyclobutylcarbonyl)(ethyl)amino]methyl}-4-fluorophenyl)-1H-indazol-1-yl]acetic acid], the IC50 turned out to be 7 nM.

With `CCN(Cc1cc(F)ccc1-c1nn(CC(=O)O)c2ccc(Cl)cc12)C(C)=O` [Example 22], the IC50 is 10 nM.

As to `CCN(Cc1cc(C(F)(F)F)ccc1-c1nn(CC(=O)O)c2cccc(Cl)c12)C(=O)NCc1ccccc1` [Example 23, (3-[2-{[[(Benzylamino)carbonyl](ethyl)amino]methyl}-4-(trifluoromethyl)phenyl]-4-chloro-1H-indazol-1-yl}acetic acid], the IC50 was determined as 8 nM.

As to `CCN(Cc1ccccc1-c1nn(CC(=O)O)c2ccc(Cl)cc12)C(=O)C1CC1` [Example 24], the IC50 came out at 9 nM.

Regarding `CCN(Cc1cc(C(F)(F)F)ccc1-c1nn(CC(=O)O)c2ccc(Cl)c(F)c12)C(=O)C1CC1` [Example 27], the IC50 is 14 nM.

Take `CCN(Cc1cc(C(F)(F)F)ccc1-n1cc(CC(=O)O)c2ccc(F)cc21)C(=O)C1CC1` [Example 30, {1-[2-[[(Cyclopropylcarbonyl)(ethyl)amino]methyl}-4-(trifluoromethyl)phenyl]-6-fluoro-1H-indol-3-yl}acetic acid]: the IC50 is 18 nM.

Turning to `CCN(Cc1cc(C(F)(F)F)ccc1-c1cn(CC(=O)O)c2ccccc12)C(=O)C1CC1` [Example 31, (3-[2-[[(Cyclopropylcarbonyl)(ethyl)amino]methyl)-4-(trifluoromethyl)phenyl]-1H-indol-1-yl}acetic acid], the IC50 was 19 nM.

For the compound `CCN(Cc1cc(C(F)(F)F)ccc1-c1cn(CC(=O)O)c2ccc(F)cc12)C(=O)C1CC1` [Example 33], the IC50 was 18 nM.

In the case of `CCN(Cc1cc(F)ccc1-c1cn(CC(=O)O)c2ccccc12)C(=O)C1CC1` [Example 37, [3-(2-[[(Cyclopropylcarbonyl)(ethyl)amino]methyl}-4-fluorophenyl)-1H-indol-1-yl]acetic acid], the IC50 was determined as 11 nM.

As to `CCN(Cc1cc(F)ccc1-c1cn(CC(=O)O)c2ccc(C(F)(F)F)cc12)C(=O)C1CC1` [Example 39, [3-(2-[[(Cyclopropylcarbonyl)(ethyl)amino]methyl}-4-fluorophenyl)-5-(trifluoromethyl)-1H-indol-1-yl]acetic acid], the IC50 amounted to 13 nM.

Consider `CCN(Cc1cc(C(F)(F)F)ccc1-c1cn(CC(=O)O)c2cccc(F)c12)C(=O)C1CC1` [Example 40, (3-[2-[[(Cyclopropylcarbonyl)(ethyl)amino]methyl}-4-(trifluoromethyl)phenyl]-4-fluoro-1H-indol-1-yl}acetic acid], for which the IC50 is 3 nM.

`CCN(Cc1cc(F)ccc1-c1cn(CC(=O)O)c2ccc(F)cc12)C(=O)C1CC1` [Example 42, [3-(2-([(Cyclopropylcarbonyl)(ethyl)amino]methyl}-4-fluorophenyl)-5-fluoro-1H-indol-1-yl]acetic acid]: the IC50 came out at 6 nM.

With `CCN(Cc1cc(C(F)(F)F)ccc1-c1cn(CC(=O)O)c2ccc(F)cc12)C(=O)NCc1ccccc1` [Example 43, {3-[2-{[[(Benzylamino)carbonyl](ethyl)aaino]methyl]-4-(trifluoromethyl)phenyl]-5-fluoro-1H-indol-1-yl}acetic acid], the IC50 is 16 nM.

Take `Cc1nnc(C2CC2)n1Cc1cc(C(F)(F)F)ccc1-c1cn(CC(=O)O)c2ccc(F)cc12` [Example 46, (3-[2-[(3-Cyclopropyl-5-methyl-4H-1,2,4-triazol-4-yl)methyl]-4-(trifluoromethyl)phenyl]-5-fluoro-1H-indol-1-yl}acetic acid]: the IC50 was found to be 9 nM.

`CCN(Cc1cc(C(F)(F)F)ccc1-c1cn(CC(=O)O)c2ccc(F)c(F)c12)C(=O)C1CC1` [Example 50, {3-[2-{[(Cyclopropylcarbonyl)(ethyl)amino]methyl)-4-(trifluoromethyl)phenyl]-4,5-difluoro-1H-indol-1-yl}acetic acid]: the IC50 worked out at 16 nM.

For `CCN(Cc1cc(F)ccc1-c1cn(CC(=O)O)c2cccc(F)c12)C(=O)C1CC1` [Example 52, [3-(2-{[(Cyclopropylcarbonyl)(ethyl)amino]methyl}-4-fluorophenyl)-4-fluoro-1H-indol-1-yl]acetic acid], the IC50 stood at 7 nM.

For the compound `CCN(Cc1ccccc1-c1cn(CC(=O)O)c2ccc(F)cc12)C(=O)C1CC1` [Example 54, [3-(2-([(Cyclopropylcarbonyl)(ethyl)amino]methyl)phenyl)-5-fluoro-1H-indol-1-yl]acetic acid], the IC50 amounted to 4 nM.
